Target: T1, OB-R (Homo sapiens, UniProt P48357)
T1 construct: After confirming via Western that the primary EEC and ESC and endometrial cell lines utilized herein had OB-R; endogenous in cells; host or cells: primary human EEC and ESC; Ishikawa (ECACC 9832301) and HES cell lines
T1 sequence (P48357 22-1165): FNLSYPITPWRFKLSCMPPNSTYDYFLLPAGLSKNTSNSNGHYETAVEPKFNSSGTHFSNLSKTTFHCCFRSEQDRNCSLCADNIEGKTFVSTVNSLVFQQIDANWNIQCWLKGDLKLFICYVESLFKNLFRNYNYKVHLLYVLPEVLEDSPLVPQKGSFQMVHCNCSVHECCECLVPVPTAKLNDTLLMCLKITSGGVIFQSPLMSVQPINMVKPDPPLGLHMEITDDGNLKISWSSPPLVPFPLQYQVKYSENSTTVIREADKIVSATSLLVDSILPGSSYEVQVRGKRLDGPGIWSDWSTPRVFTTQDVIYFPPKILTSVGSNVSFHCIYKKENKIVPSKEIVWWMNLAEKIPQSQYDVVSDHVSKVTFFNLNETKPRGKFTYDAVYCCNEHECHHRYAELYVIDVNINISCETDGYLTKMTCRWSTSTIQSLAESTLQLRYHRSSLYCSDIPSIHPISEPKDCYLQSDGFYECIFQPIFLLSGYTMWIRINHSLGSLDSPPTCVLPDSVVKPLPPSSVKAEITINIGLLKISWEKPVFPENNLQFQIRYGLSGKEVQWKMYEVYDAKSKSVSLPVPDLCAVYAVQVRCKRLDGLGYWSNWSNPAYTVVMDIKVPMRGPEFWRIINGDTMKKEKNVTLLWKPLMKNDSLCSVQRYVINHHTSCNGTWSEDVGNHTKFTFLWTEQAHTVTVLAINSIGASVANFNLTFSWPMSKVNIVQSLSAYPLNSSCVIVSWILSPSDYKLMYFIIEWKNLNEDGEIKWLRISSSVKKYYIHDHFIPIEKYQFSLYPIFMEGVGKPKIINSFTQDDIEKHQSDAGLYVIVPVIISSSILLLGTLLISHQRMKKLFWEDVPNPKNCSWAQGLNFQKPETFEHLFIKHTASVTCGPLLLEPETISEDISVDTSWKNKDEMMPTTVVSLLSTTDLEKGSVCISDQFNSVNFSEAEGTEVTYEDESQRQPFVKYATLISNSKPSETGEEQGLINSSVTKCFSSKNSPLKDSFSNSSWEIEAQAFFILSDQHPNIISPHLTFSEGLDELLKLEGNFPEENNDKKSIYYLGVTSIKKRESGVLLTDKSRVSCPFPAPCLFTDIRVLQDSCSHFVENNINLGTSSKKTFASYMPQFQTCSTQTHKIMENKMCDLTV
Assay: IL-1R tl levels in human endometrial epithelial cells (Western blot)
Assay type: cell-based
Conditions: EEC cultures
Description: Primary human endometrial cells (ESC and EEC) were cultured for 5-9 days in DMEM-F12 medium containing 5% fetal bovine serum (FBS), 5 μg/ml insulin, 1% amphopthericin B, 100 μg/ml streptomycin and 100 U/ml penicillin until they were 80% confluent. Two types of endometrial epithelial cell lines, HES (originally derived from a benign proliferative endometrium) and Ishikawa (human endometrial epithelial adenocarcinoma, ECACC 9832301, Wiltshire, England) were cultured under the same conditions described above. The cells were washed twice with 100 mM phosphate saline buffer (PBS), pH 7.2 and cultured for additional 2 days in the same medium but without FBS (basal medium). Cells were washed as described before and cultured in basal medium containing leptin (0, 3, 10 or 62 nM) or IL-1β (0.6, 3 and 10 nM). […]
Endometrial cells were washed with ice-cold PBS and lysed by homogenization on ice with lysis buffer A [[…] Tris, pH 7.4, containing 137 nM NaCl, 2 mM EDTA, 10% glycerol, 50 mM β-glycerophosphate, 1% Nonidet P-40 and a mixture of proteases and phosphatase inhibitors composed of 100 μM antipain, 0.1 mg/ml trypsin inhibitor, protease inhibitor cocktail 1:50 (Sigma), 50 nM NaF, 2 mM phenyl-methylsulfonyl fluoride, and 2 mM sodium orthovanadate]. […] Protein concentrations were determined using the Bradford protein assay (BioRad Laboratories Inc., Hercules, Calif.). […]

SRNVIQISNDLENLRDLLHVLAFSKS [LPA-2, 26 amino acid peptide, residues 70-95 of helix III of the human leptin molecule; leptin peptide antagonist]
effect on leptin-induced IL-1R tl levels: inhibited the leptin-induced effects

leptin: human recombinant leptin (R&D Systems), OB-R ligand used as stimulus
IL-1R tl levels after leptin: increase the levels of IL-1R tl

Source: patent publication US8058228B2, “Leptin peptide antagonists” (Boston Biomedical Research Institute, priority 2004, dated 2011)
